The IC50 is the concentration that gives 50% inhibition. The low end stands for greater potency, the high end for weaker potency.

Assay [1] relates to TNFα production in THP-1 cells. Put plainly: LPS induced TNFα production assay in THP-1 cells. It counts as cell-based. The note with it: Homo sapiens, 300 ng/mL LPS, measured at 5 hours. How it is done:
Provided compounds were also assayed in an LPS (Lipopolysaccharide) or R848 (TLR-7 agonist) induced cytokine (TNFα and IL8) production assay in THP-1 cells, human white blood cells (hWBC), and human whole blood. The exemplary protocol for this assay in THP-1 cells was as follows below.
THP-1 cells from ATCC (TIB-202) were cultured in RPMI Medium 1640 (Invitrogen, Cat No. A10491-01), 10% fetal bovine serum (Invitrogen, Cat No. 10099141, Lot No. 8172882) containing 100 U/mL Penicillin, 100 μg/mL streptomycin (Invitrogen, Cat No. 15140-122), and 50 uM 2-Mercaptoethanol (Invitrogen, Cat No. 21985023). LPS-EK ultra pure (Invivogen, Cat No. tlrl-peklps) was used to induce IL8 and TNFα production, that was detected in the cell culture supernatant by IL8 HTRF kit (Cisbio, Cat No. 62IL8PEB) and TNFα HTRF kit (Cisbio, Cat No. 62TNFPEB), as per manufacturer instructions. Cells were cultured in 96 well assay plates at 100,000 cells per well, and compounds diluted in final 0.3% DMSO were pre-incubated with cells for 1 hour prior to stimulation with 300 ng/mL LPS. Cytokine production in cell supernatant was measured at 5 hours for TNFα production, and at 16 hours for IL8 production and assessment of cell viability.
The compound numbers correspond to the compound numbers in Table 1. Compounds having an activity designated as “A” provided an IC50≦0.5 μM; compounds having an activity designated as “B” provided an IC50 of 0.5-5.0 μM; compounds having an activity designated as “C” provided an IC50>5.0 μM. “NA” stands for “not assayed.”

Assay [2] concerns the target T1, IRAK4 (Homo sapiens, UniProt Q9NWZ3).
T1 construct: purchased CARNA Bioscience 09-145
T1 sequence (Q9NWZ3 1-460): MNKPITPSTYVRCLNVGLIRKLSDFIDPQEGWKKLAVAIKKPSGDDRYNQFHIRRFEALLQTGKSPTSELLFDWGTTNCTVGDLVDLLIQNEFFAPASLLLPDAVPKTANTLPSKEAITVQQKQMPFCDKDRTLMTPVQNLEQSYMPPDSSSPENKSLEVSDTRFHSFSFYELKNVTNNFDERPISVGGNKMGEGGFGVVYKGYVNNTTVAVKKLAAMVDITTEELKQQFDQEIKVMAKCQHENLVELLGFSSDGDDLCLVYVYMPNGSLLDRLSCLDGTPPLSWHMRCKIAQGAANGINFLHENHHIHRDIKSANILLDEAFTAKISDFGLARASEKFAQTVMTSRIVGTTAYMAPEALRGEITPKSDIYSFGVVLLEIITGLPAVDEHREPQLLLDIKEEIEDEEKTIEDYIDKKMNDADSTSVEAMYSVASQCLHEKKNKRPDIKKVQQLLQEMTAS
The experiment in a line: IRAK-4 activity inhibition assay (Caliper). It counts as biochemical. Conditions: 3.5 nM IRAK4, 1.5 μM Peptide 8, 37 μM ATP. The method in brief: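 Mobility-shift (Caliper) assay with 3.5 nM IRAK4 in 50 mM HEPES pH 7.5, 0.0015% Brij-35, 5 mM MgCl2, 1 mM MnCl2, 2 mM DTT. Enzyme preincubated with compound 10 min at room temperature, then 1.5 μM peptide 8 and 37 μM ATP for 40 min. Inhibition from conversion % relative to DMSO and no-enzyme controls; 10-point IC50.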

With `N#Cc1ccc2ncnc(N[C@H]3CC[C@H](N4CCOCC4)CC3)c2c1` [Compound I-3, 4-(((1r,4r)-4-morpholinocyclohexyl)amino)quinazoline-6-carbonitrile], the IC50 is at most 500 nM in assay [1] and at most 5000 nM in assay [2].

In the case of `N#Cc1ccc2ncnc(N[C@H]3CC[C@H](N4CCC5(CC4)CC5)CC3)c2c1` [Compound I-7, 4-(((1r,4r)-4-(6-azaspiro[2.5]octan-6-yl)cyclohexyl)amino)-quinazoline-6-carbonitrile], the IC50 is at most 500 nM in assay [1] and at most 5000 nM in assay [2].
